# Results: ChEMBL document CHEMBL3988442, “University of Dundee, Small-Polar-MMV Screening Library” (2021)
# Assay: In vitro enzyme assay to detect hydrolysis of chlorophenol red-beta-D-[…] directly proportional to the number of Toxoplasma stably expressing beta-galactosidase
# Format: functional, organism-based, Toxoplasma gondii
# Conditions: for IC50: Toxoplasma gondii
Compound,IC50,pIC50
C[C@@H]1CN(C2CCN(c3ccccc3F)CC2)CC[C@]1(C)O,> 50.1 µM,–
Cn1nnnc1SCCNC(=O)c1cc(Cl)ccc1F,> 50.1 µM,–
CCc1noc(CC)c1CNC(=O)Nc1ncnn1C,> 50.1 µM,–
Cc1nc(N2CCN(c3ccccc3)CC2)c2c(n1)c(C)nn2C,> 50.1 µM,–
CCN1CC2(CC1=O)CN(Cc1ccoc1)CCN(C(=O)C(C)C)C2 (stereo not drawn),> 50.1 µM,–
Cc1noc(CCCNC(=O)c2ccon2)n1,> 50.1 µM,–
CCn1nc(C)c2nc(C(C)C)nc(NCC(C)O)c21 (stereo not drawn),> 50.1 µM,–
CCCC(=O)N1CCN(C(=O)NCC)CC1,> 50.1 µM,–
Cc1c(NC(=O)c2ccc(Br)cc2)c(C(=O)N(C)C)nn1C,> 50.1 µM,–
O=C(N1CCOCC1)[C@@]12CCO[C@@H]1CCN(C1CCC1)C2,> 50.1 µM,–
CNc1cc(-c2cccc(OC)c2)[nH]n1,> 50.1 µM,–
CC(C)N1CCCN(c2nc(-c3cccnc3)nc3c2cnn3C)CC1,5.84 µM,–
c1cnc(-c2nn3c(CN4CCCCC4)nnc3s2)cn1,> 50.1 µM,–
Cc1nc(N2CCN(C(=O)c3ccncc3)CC2)c2c(n1)c(C)nn2C,> 50.1 µM,–
NCc1cccc(CN2CCCC2)c1,> 50.1 µM,–
O=C(c1cc(=O)[nH][nH]1)N1CCCC2(CCC(=O)N(C3CCCC3)C2)C1 (stereo not drawn),> 50.1 µM,–
Cc1nn(C)c2c(=O)n(Cc3ccccc3)nnc12,> 50.1 µM,–
C[C@@H]1CN(C(=O)c2cc(F)cc(C#N)c2)C[C@]1(C)O,> 50.1 µM,–
COCCN(Cc1ccccc1Cl)c1nc(CCN)nc2ccccc12,13 µM,–
CCC(C)(CC(=O)OC)NCc1cc(C)on1 (stereo not drawn),> 50.1 µM,–
O=C(CN1CCc2sccc2C1)Nc1ccnc2ccnn12,2.81 µM,5.251
CC(C)NC(=O)Nc1nc2c(s1)CN(C(=O)NCc1cccs1)CC2,> 50.1 µM,4.581
Cn1cccc1C(=O)OCCCN1CCOCC1,> 50.1 µM,–
c1cnc(-c2nn3c(CN4CCOCC4)nnc3s2)cn1,> 50.1 µM,–
O=C(NCCc1ncc[nH]1)c1cccnc1SC(F)F,> 50.1 µM,–
Cc1nc(C2(NCc3c(C)nn(C)c3N3CCOCC3)CCC2)no1,25.3 µM,–

Compound,IC50,pIC50
CNC(=O)NC(=O)CCN1CCCC(C)C1 (stereo not drawn),> 50.1 µM,–
Cc1ncc(CN2CCOC(c3ccc(-c4ccccc4F)cn3)C2)s1 (stereo not drawn),9.61 µM,–
CCn1c(NCc2ccccc2)nc2c(C)nn(C)c2c1=O,22.7 µM,4.457
CCC1=NC(SCC(=O)c2ccccc2)c2cc(CC)sc2N1 (stereo not drawn),14.9 µM,–
O=C(c1ccc(-c2ccc(O)nc2)s1)N1CCCCCC1,> 50.1 µM,–
CCc1nc2ccccc2c(=O)n1CC1(O)CCN(C(=O)COC)CC1,> 50.1 µM,–
Cc1cccc(OCc2ccc(C(=O)N3N=CCC3(O)C(F)(F)F)o2)c1 (stereo not drawn),3.87 µM,5.353
Cc1cc(C(=O)Nc2cnn(CC(F)(F)F)c2)nc(N2CCOCC2)n1,> 50.1 µM,–
CCN1CCN(Cc2nnnn2C2CC2)CC1,> 50.1 µM,–
CCCc1nc(NCCCOC)c2c(n1)c(C)nn2CC,34 µM,–
N#Cc1ccnc(SCC(=O)Nc2ccncc2)c1,> 50.1 µM,–
NC1CCN(C(=O)Nc2ccccc2)C1 (stereo not drawn),> 50.1 µM,–
CCc1nc(Nc2cccc(C(=O)NC)c2)c2c(n1)c(C)nn2CC,> 50.1 µM,–
Cc1c(CC(=O)N2CCN(C(C)C)CC2)nnn1-c1ccccc1,> 50.1 µM,–
Cc1cccc(NC(=O)[C@@H]2CCCN2)n1,> 50.1 µM,–
Cc1cc(=O)n2c3c(cc(S(=O)(=O)NC4CC4)cc13)CCC2,> 50.1 µM,–
COC(=O)c1ccc2c(c1)CCCN2S(=O)(=O)c1cn(C)c(C)n1,7.21 µM,–
CO[C@H]1[C@@H]2CC[C@H]1CN(c1nc(C)nc3ccsc13)C2,6.77 µM,–
CCN(CC(C)C#N)C(=O)c1ccc(Br)o1 (stereo not drawn),> 50.1 µM,–
CCNc1ncc2c(n1)CN(c1ccc(Cl)cc1)C2=O,> 50.1 µM,–
COc1ncccc1C(=O)N1CCc2ccccc2C1,> 50.1 µM,–
Cc1c(S(=O)(=O)N2CCOCC2)cc2c(C)cc(=O)n3c2c1CCC3,> 50.1 µM,–
Cc1cc(C(=O)Nc2ccc3c(c2)CC(=O)N3)c(C)o1,> 50.1 µM,–
CCCc1nc(CN(CC)C(=O)c2onc3ccccc23)no1,> 50.1 µM,–
CCN(CCO)Cc1ccc(Br)c2cccnc12,2.26 µM,5.613
CCCNC(=O)NCCc1noc(-c2cccnc2)n1,> 50.1 µM,–

Compound,IC50,pIC50
CC(C)(C)OC(=O)NCC1CC(C(N)=O)=NO1 (stereo not drawn),> 50.1 µM,–
CC(=O)c1ccc(OCC(O)Cn2ccnc2)cc1 (stereo not drawn),> 50.1 µM,–
CN(C(=O)NCCCN1CCCC1)C1CCN(c2ccccc2)C1=O (stereo not drawn),> 50.1 µM,–
COc1ccc(C(=O)N(CCO)Cc2ccccc2)c(OC)n1,29.2 µM,< 4.3
CC(C(=O)Nc1sccc1C(N)=O)N(C)CCOc1ccccc1 (stereo not drawn),2.24 µM,5.826
CCS(=O)(=O)N(CCc1cccs1)CC(=O)NC,> 50.1 µM,–
OC[C@H]1CCCN1c1nccc(-c2c[nH]nc2C2CCCCC2)n1,11.5 µM,–
Cc1ocnc1C(=O)Nc1ccc2c(c1)NCCC2,> 50.1 µM,–
CCC(=O)NC1CCCc2nc(N(C)C)ncc21 (stereo not drawn),> 50.1 µM,–
O=C(N1CCOCC1)[C@@]12CCO[C@@H]1CCN(C1CCOCC1)C2,> 50.1 µM,–
CCNC(=O)CN1CCCC(c2nccn2CC)C1 (stereo not drawn),> 50.1 µM,–
COc1ccc(NCC(=O)N2CCNC(=O)C2)c(C)c1,> 50.1 µM,–
CNc1cc(-c2cccc(OC)c2OC)nc(N)n1,> 50.1 µM,–
NCCc1cc(C(F)(F)F)ccn1,> 50.1 µM,–
Cc1ccc(CNC(=O)c2cc(C)n(C)n2)o1,> 50.1 µM,–
CCc1cnc(N2CCCC(CCC(N)=O)C2)nc1 (stereo not drawn),> 50.1 µM,–
O=C1c2ccc(F)cc2C(=O)N1Cc1nnsc1Cl,> 50.1 µM,–
Cn1cc(CN(C(=O)c2ccc(N)nc2)C2CC2)cn1,> 50.1 µM,–
COc1c(N)c(C)nn1C,> 50.1 µM,–
NC1CN(S(=O)(=O)c2ccc3c(c2)OCCO3)C1,> 50.1 µM,–
O=C(COc1ccc2c(c1)CCC2)NCc1ccco1,35.5 µM,–
c1ccc(CNc2ccncc2)nc1,> 50.1 µM,–
Cc1nnc(SCCNC(=O)CC2C=CS(=O)(=O)C2)s1 (stereo not drawn),> 50.1 µM,–
COc1ccc(C)cc1CC(=O)N1CCN(C)CC1,> 50.1 µM,–
CC(C)(C)c1cn2c(n1)C(CNCc1cnn3ccccc13)CCC2 (stereo not drawn),2.52 µM,–
COC(=O)CC(C1=Cc2ccccc2OC1)c1oc(C)cc(=O)c1O (stereo not drawn),> 50.1 µM,4.537

Compound,IC50,pIC50
CN1CCC(NCC(O)c2cccc(OCc3ccccc3)c2)CC1 (stereo not drawn),7.98 µM,–
Cc1cc(NCCCOC(C)C)c2nncn2n1,> 50.1 µM,–
Cc1[nH]c2ccccc2c1-c1ccnc(N[C@@H](C)CO)n1,43.3 µM,–
COc1ccc(C2=NOC(C(=O)N3CCCc4ccccc43)C2)cc1 (stereo not drawn),27.9 µM,–
CCCc1nc2c(c(C)c(C)n2Cc2ccccn2)c(N)c1CC,10.4 µM,4.935
CCn1nc(C)c2nc(C(C)C)nc(NC)c21,> 50.1 µM,–
Cn1cc(N2CC3(CCN(Cc4nccs4)CC3)OCC2=O)cn1,> 50.1 µM,–
c1ccc(-c2nn3c(CN4CCOCC4)nnc3s2)nc1,> 50.1 µM,–
Cn1cc(CN)c(C(F)(F)F)n1,> 50.1 µM,–
OCCNc1nc2ccccc2s1,> 50.1 µM,–
CCn1cc(NC(=O)c2cc(C)nc(N3CCOCC3)n2)cn1,> 25.1 µM,–
Cc1c(C)n(Cc2ccccn2)c2nc3c(c(N)c12)CCCCCC3,6.75 µM,–
COC(C)CCC(=O)NCc1cn2ccccc2n1 (stereo not drawn),> 50.1 µM,–
O=C(NCCC1=CCCCC1)c1n[nH]c2c1CCCC2,1.7 µM,5.49
CCn1nc(-c2ccc(F)cc2)oc1=O,> 50.1 µM,–
COc1cc(Br)c(CN)cc1OC,> 50.1 µM,–
CCCn1ncc(-c2ccnc(N[C@@H]3C[C@@H]4CC[C@H]3C4)n2)c1C,5.59 µM,–
Cc1ccc(CNC(=O)C2CCCCC(=O)N2)o1 (stereo not drawn),> 50.1 µM,–
O=C(CN1CCN(C(=O)c2ccco2)CC1)NC1CC1,> 50.1 µM,–
CCCc1nc(NCCOC)c2c(n1)c(C)nn2CC,> 50.1 µM,–
CCc1nnc(Nc2cc(C)nc(C3CN(C(=O)C(C)C)CCO3)c2)s1 (stereo not drawn),> 50.1 µM,–
CN1CCC(NC(=O)c2cc3ccccc3s2)C1=O (stereo not drawn),> 50.1 µM,–
Nc1c[nH]nc1-c1ccccn1,> 50.1 µM,–
Cc1ccc(F)cc1C(=O)NC1CCCNC1 (stereo not drawn),> 50.1 µM,–
Cc1ccc(C(=O)N2CCN(C(C)C(N)=O)CC2)s1 (stereo not drawn),> 50.1 µM,–
CN(C)C(=O)CNC(CO)c1ccc(Cl)c(F)c1 (stereo not drawn),> 50.1 µM,–

Compound,IC50,pIC50
CCN(Cc1nonc1C)C(=O)Cn1nc(C(F)(F)F)cc1C1CC1,> 50.1 µM,–
CC(C)CC(=O)N1CC[C@H]2N(C)CC[C@@]2(C(=O)Nc2ccccc2)CC1,> 50.1 µM,–
CCc1cccc(OCC(=O)N2CCCC(n3cncn3)C2)c1 (stereo not drawn),28.2 µM,–
Cc1ccc(C(=O)N2CCN(c3nccn3C)CC2)o1,> 50.1 µM,–
Cc1nc2cc(C3CCN(Cc4cccc(F)c4F)C3)nn2c(O)c1C (stereo not drawn),10.5 µM,–
COCc1nn(CC(=O)c2cc(F)ccc2F)c(=O)o1,> 50.1 µM,–
CCN1C[C@H]2CCN(C(=O)NC)CC[C@H]2S1(=O)=O,> 50.1 µM,4.337
COc1ccc(-c2cncc(N)c2)cc1CO,> 50.1 µM,–
CCC(=O)N1CCN(c2nc(C)nc3c(C)nn(C)c23)CC1,> 50.1 µM,–
COC(=O)c1cnc(F)cn1,> 50.1 µM,–
Cc1cc(=O)cc(C(=O)NCCC(C)n2ccnc2)o1 (stereo not drawn),> 50.1 µM,–
O=C(c1ccc(-c2ccc(O)nc2)s1)N1CCSCC1,36.8 µM,4.349
O=C(OCCOc1cccnc1)C1CC1,> 50.1 µM,–
Cc1ccc(Cl)cc1NC(=O)CN1CCNC(=O)C1,> 50.1 µM,–
CC(C)(CO)NCC(O)c1cccc(Cl)c1 (stereo not drawn),> 50.1 µM,–
NC(=O)C1CCN(c2nccc(-c3c[nH]nc3C3CCCCC3)n2)CC1,8.32 µM,–
COc1ccc(C2CCCN2c2ccnc(C)c2Cl)c(OC)c1 (stereo not drawn),14 µM,–
N[C@@H]1CC[C@H](C(=O)NCc2csc(N3CCCC3)n2)C1,> 50.1 µM,–
CC(C)Cn1cc(NC(=O)N2CCC(O)C2)cn1 (stereo not drawn),> 50.1 µM,–
COC(=O)c1ccc(NS(=O)(=O)c2cnc(NC(C)=O)s2)cc1,> 50.1 µM,–
CC(=O)N1CC2(CCCN(Cc3ccc(Cl)cc3)C2)Cc2ccccc21 (stereo not drawn),10.4 µM,4.953
N#Cc1c(Cl)nsc1NCc1cccnc1OC1CCCC1,6.71 µM,5.095
CCC(=O)N1CCN(c2ncnc3cc4c(cc23)OCCO4)CC1,> 50.1 µM,–
Cc1cncc(C(=O)N2CCCC2C(C)(C)O)c1 (stereo not drawn),> 50.1 µM,–
CC(=O)Nc1ncc(S(=O)(=O)Nc2cccc(O)c2)s1,> 50.1 µM,–
